Experiments:
CDK2/Cyclin E1 = CDK2/Cyclin E1 (Homo sapiens, UniProt P24941); test: CDK2/Cyclin E1 Biochemical Assay (TR-FRET), 0.060 mM ATP; conditions: 0.15 μM Rb (Ser780)-biotin substrate, pH7.0, 60 min preincubation, 120 min reaction, room temperature
How it was run: (§1)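 TR-FRET assay with 0.15 μM Rb (Ser780)-biotin substrate and 0-10 μM compound in 50 mM HEPES pH7.0, 50 mM MgCl2, 1 mM DTT. ATP was 0.060 mM for CDK2/Cyclin E1 and 0.015 mM for CDK1/Cyclin B1. Kinase was preincubated with compound 60 min, reacted 120 min at room temperature, and IC50 was fitted (four-parameter) from the 665/620 nm ratio.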

CDK1/Cyclin B1 = CDK1/Cyclin B1 (Homo sapiens, UniProt P06493); test: CDK1/Cyclin B1 Biochemical Assay (TR-FRET), 0.015 mM ATP; conditions: 0.15 μM Rb (Ser780)-biotin substrate, pH7.0, 60 min preincubation, 120 min reaction, room temperature
How it was run: as §1

CDK1/Cyclin B1, sequence (P06493 whole entry): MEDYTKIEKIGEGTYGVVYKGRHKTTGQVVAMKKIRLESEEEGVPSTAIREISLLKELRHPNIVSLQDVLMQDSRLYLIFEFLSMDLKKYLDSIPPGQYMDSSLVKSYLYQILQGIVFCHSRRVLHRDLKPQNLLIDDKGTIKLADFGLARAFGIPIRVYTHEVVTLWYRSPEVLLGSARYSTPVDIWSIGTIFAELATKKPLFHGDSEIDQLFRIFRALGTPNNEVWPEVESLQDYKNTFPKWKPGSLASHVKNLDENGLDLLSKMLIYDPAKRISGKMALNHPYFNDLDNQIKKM
CDK1/Cyclin B1, sequence (P14635 whole entry partner): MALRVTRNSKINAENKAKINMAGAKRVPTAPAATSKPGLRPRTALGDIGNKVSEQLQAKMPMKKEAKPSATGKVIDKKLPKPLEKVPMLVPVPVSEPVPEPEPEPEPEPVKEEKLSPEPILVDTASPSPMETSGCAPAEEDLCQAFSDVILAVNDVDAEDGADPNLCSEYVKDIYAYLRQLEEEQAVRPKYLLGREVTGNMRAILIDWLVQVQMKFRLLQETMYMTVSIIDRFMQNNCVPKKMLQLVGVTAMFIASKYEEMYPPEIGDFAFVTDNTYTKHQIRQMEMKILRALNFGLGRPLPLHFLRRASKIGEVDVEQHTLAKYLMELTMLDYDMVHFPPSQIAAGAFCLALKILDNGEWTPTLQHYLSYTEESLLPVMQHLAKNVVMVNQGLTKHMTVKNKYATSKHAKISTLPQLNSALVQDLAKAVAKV

Compound | IC50 (CDK2/Cyclin E1) [nM] | IC50 (CDK1/Cyclin B1) [nM]
CC(C)NC(=O)O[C@@H]1CC[C@H](c2cc(Nc3ccc4c(c3)CS(=O)(=O)N4)n[nH]2)C1 (single isomer, unassigned) [Example 7a] | 0.9 | 28
CC(C)NC(=O)O[C@H]1CC[C@@H](c2cc(Nc3cc4c(cc3F)CNS4(=O)=O)n[nH]2)C1 (single isomer, unassigned) [Example 1b, cis-3-(3-((5-fluoro-1,1-dioxido-2,3-dihydrobenzo[d]isothiazol-6-yl)amino)-1H-pyrazol-5-yl)cyclopentyl isopropylcarbamate] | 18 | 259
CN1Cc2c(ccc(Nc3cc([C@@H]4CC[C@H](OC(=O)NC5(C)COC5)C4)[nH]n3)c2F)S1(=O)=O (single isomer, unassigned) [Example 352b, cis-3-(3-((4-fluoro-2-methyl-1,1-dioxido-2,3-dihydrobenzo[d]isothiazol-5-yl)amino)-1H-pyrazol-5-yl)cyclopentyl(3-methyloxetan-3-yl)carbamate] | 7 | 651
COCCN1Cc2c(ccc(Nc3cc([C@@H]4CC[C@H](OC(=O)NC(C)C)C4)[nH]n3)c2C)S1(=O)=O (relative stereo) [Example 36, cis-3-(3-((2-(2-methoxyethyl)-4-methyl-1,1-dioxido-2,3-dihydrobenzo[d]isothiazol-5-yl)amino)-1H-pyrazol-5-yl)cyclopentyl isopropylcarbamate] | 18 | 329
CC(C)NC(=O)O[C@@H]1CC[C@H](c2cc(Nc3ccc4c(c3)N(C(=O)OC(C)(C)C)CS4(=O)=O)n[nH]2)C1 (relative stereo) [Example 319, cis-tert-butyl 5-((5-(3-((isopropylcarbamoyl)oxy)cyclopentyl)-1H-pyrazol-3-yl)amino)benzo[d]thiazole-3 (2H)-carboxylate 1,1-dioxide] | 85 | 1750
CC[C@H](C)NC(=O)O[C@H]1CC[C@@H](c2cc(Nc3ccc4c(c3F)C(C)NS4(=O)=O)n[nH]2)C1 (single isomer, unassigned) [Example 54b] | 2.7 | 564
CC(C)NC(=O)O[C@H]1CC[C@@H](c2cc(Nc3cc4c(cc3F)NS(=O)(=O)C4)n[nH]2)C1 (single isomer, unassigned) [Example 292a, cis-3-(3-((6-fluoro-2,2-dioxido-1,3-dihydrobenzo[c]isothiazol-5-yl)amino)-1H-pyrazol-5-yl)cyclopentyl isopropylcarbamate] | 13 | 1410
CCCNC(=O)O[C@H]1CC[C@@H](c2cc(Nc3ccc4c(c3F)CS(=O)(=O)N4CC(F)(F)F)n[nH]2)C1 [Example 266b] | 3.5 | 59
CC(C)NC(=O)O[C@H]1CC[C@@H](c2cc(Nc3ccc4c(c3)CS(=O)(=O)N4C(C)C)n[nH]2)C1 (relative stereo) [Example 202, cis-3-(3-((1-isopropyl-2,2-dioxido-1,3-dihydrobenzo[c]isothiazol-5-yl)amino)-1H-pyrazol-5-yl)cyclopentyl isopropylcarbamate] | 6.2 | 98
CC(C)NC(=O)O[C@H]1CO[C@@H](c2cc(Nc3ccc4c(c3F)CNS4(=O)=O)n[nH]2)C1 (relative stereo) [Example 378, 5-(3-((4-fluoro-1,1-dioxido-2,3-dihydrobenzo[d]isothiazol-5-yl)amino)-1H-pyrazol-5-yl)tetrahydrofuran-3-yl isopropylcarbamate] | 9.3 | 496
[2H]C([2H])([2H])N1Cc2c(ccc(Nc3cc([C@@H]4CC[C@H](OC(=O)NC(C)C)C4)[nH]n3)c2F)S1(=O)=O (single isomer, unassigned) [Example 129b, cis-3-(3-((4-fluoro-2-(methyl-d3)-1,1-dioxido-2,3-dihydrobenzo[d]isothiazol-5-yl)amino)-1H-pyrazol-5-yl)cyclopentyl isopropylcarbamate] | 2.6 | 185
O=C(NC1CCC(O)CC1)O[C@H]1CC[C@@H](c2cc(Nc3ccc4c(c3F)CNS4(=O)=O)n[nH]2)C1 (single isomer, unassigned) [Example 143, cis-3-(3-((4-fluoro-1,1-dioxido-2,3-dihydrobenzo[d]isothiazol-5-yl)amino)-1H-pyrazol-5-yl)cyclopentyl(4-hydroxycyclohexyl)carbamate] | 4.9 | 242
CC(C)(C)NC(=O)O[C@H]1CC[C@@H](c2cc(Nc3cc4c(cc3F)S(=O)(=O)NC4)n[nH]2)C1 (single isomer, unassigned) [Example 395b] | 1.3 | 114
C[C@@H](CO)NC(=O)O[C@H]1CC[C@@H](c2cc(Nc3ccc4c(c3F)CN(C3CC3)S4(=O)=O)n[nH]2)C1 (relative stereo) [Example 120, cis-3-(3-((2-cyclopropyl-4-fluoro-1,1-dioxido-2,3-dihydrobenzo[d]isothiazol-5-yl)amino)-1H-pyrazol-5-yl)cyclopentyl((S)-1-hydroxypropan-2-yl)carbamate] | 32 | 773
CC(C)NC(=O)O[C@H]1CC[C@@H](c2cc(Nc3ccc4c(c3F)CN(C3CCOC3)S4(=O)=O)n[nH]2)C1 (relative stereo) [Example 69, cis-3-(3-((4-fluoro-1,1-dioxido-2-(tetrahydrofuran-3-yl)-2,3-dihydrobenzo[d]isothiazol-5-yl)amino)-1H-pyrazol-5-yl)cyclopentyl isopropylcarbamate] | 9.5 | 647
CN1Cc2c(ccc(Nc3cc([C@@H]4CC[C@H](OC(=O)NC5(C)CC5)C4)[nH]n3)c2F)S1(=O)=O (relative stereo) [Example 124, cis-3-(3-((4-fluoro-2-methyl-1,1-dioxido-2,3-dihydrobenzo[d]isothiazol-5-yl)amino)-1H-pyrazol-5-yl)cyclopentyl(1-methylcyclopropyl)carbamate] | 1.6 | 120
CC1(NC(=O)O[C@H]2CC[C@@H](c3cc(Nc4ccc5c(c4F)CNS5(=O)=O)n[nH]3)C2)CCC1 (relative stereo) [Example 163, cis-3-(3-((4-fluoro-1,1-dioxido-2,3-dihydrobenzo[d]isothiazol-5-yl)amino)-1H-pyrazol-5-yl)cyclopentyl(1-methylcyclobutyl)carbamate] | 0.8 | 18
CC(C)NC(=O)O[C@H]1CC[C@@H](c2cc(Nc3ccc4c(c3O)CNS4(=O)=O)n[nH]2)C1 (relative stereo) [Example 405, cis-3-(3-((4-hydroxy-1,1-dioxido-2,3-dihydrobenzo[d]isothiazol-5-yl)amino)-1H-pyrazol-5-yl)cyclopentyl isopropylcarbamate] | 10 | 644
COCC(C)(C)NC(=O)O[C@H]1CC[C@@H](c2cc(Nc3ccc4c(c3F)CS(=O)(=O)N4C3CC3)n[nH]2)C1 (relative stereo) [Example 401, cis-3-(3-((1-cyclopropyl-4-fluoro-2,2-dioxido-1,3-dihydrobenzo[c]isothiazol-5-yl)amino)-1H-pyrazol-5-yl)cyclopentyl(1-methoxy-2-methylpropan-2-yl)carbamate] | 2.1 | 105
CC(C)NC(=O)O[C@H]1CC[C@@H](c2cc(Nc3ccc4c(c3F)CN(CC3CCNC3=O)S4(=O)=O)n[nH]2)C1 (relative stereo) [Example 110, cis-3-(3-((4-fluoro-1,1-dioxido-2-((2-oxopyrrolidin-3-yl)methyl)-2,3-dihydrobenzo[d]isothiazol-5-yl)amino)-1H-pyrazol-5-yl)cyclopentyl isopropylcarbamate] | 2.7 | 225
CC(C)NC(=O)O[C@H]1CC[C@@H](c2cc(Nc3ccc4c(c3F)CN(C3CC(O)C3)S4(=O)=O)n[nH]2)C1 (relative stereo) [Example 84, 3-(3-((4-fluoro-2-(3-hydroxycyclobutyl)-1,1-dioxido-2,3-dihydrobenzo[d]isothiazol-5-yl)amino)-1H-pyrazol-5-yl)cyclopentyl isopropylcarbamate] | 8.6 | 390
CC(C)NC(=O)O[C@H]1CC[C@@H](c2cc(Nc3ccc4c(c3)S(=O)(=O)NC4=O)n[nH]2)C1 (relative stereo) [Example 16, cis-3-(3-((1,1-dioxido-3-oxo-2,3-dihydrobenzo[d]isothiazol-6-yl)amino)-1H-pyrazol-5-yl)cyclopentyl isopropylcarbamate] | 18 | 385
CCCNC(=O)O[C@H]1CC[C@@H](c2cc(Nc3cc(CO)c4c(c3F)CNS4(=O)=O)n[nH]2)C1 (relative stereo) [Example 366, cis-3-(3-((4-fluoro-7-(hydroxymethyl)-1,1-dioxido-2,3-dihydrobenzo[d]isothiazol-5-yl)amino)-1H-pyrazol-5-yl)cyclopentyl propylcarbamate] | > 10000 | > 10000
CC(C)NC(=O)O[C@H]1CC[C@@H](c2cc(Nc3ccc4c(c3F)CN(CC3CCC3)S4(=O)=O)n[nH]2)C1 (relative stereo) [Example 96, cis-3-(3-((2-(cyclobutylmethyl)-4-fluoro-1,1-dioxido-2,3-dihydrobenzo[d]isothiazol-5-yl)amino)-1H-pyrazol-5-yl)cyclopentyl isopropylcarbamate] | 36 | 2020
CC(NC(=O)O[C@H]1CC[C@@H](c2cc(Nc3ccc4c(c3)CS(=O)(=O)N4)n[nH]2)C1)C1COC1 (relative stereo) [Example 343, cis-3-(3-((2,2-dioxido-1,3-dihydrobenzo[c]isothiazol-5-yl)amino)-1H-pyrazol-5-yl)cyclopentyl(1-(oxetan-3-yl)ethyl)carbamate] | 3.2 | 43
CCCNC(=O)O[C@@H]1CC[C@H](c2cc(Nc3ccc4c(c3F)CS(=O)(=O)N4CC(F)(F)F)n[nH]2)C1 [Example 266a] | 3.3 | 96

— patent US20260297080A1, “BICYCLIC COMPOUNDS AS CDK INHIBITORS” (BeOne Medicines I GmbH, priority 2022, published 2026)
